# Patent US11814367B2, “Inhibitors of glycogen synthase 1 (GYS1) and methods of use thereof” (Maze Therapeutics, Inc., priority 2021, dated 2023)
# Legend:
# [1] = molecular target: hGYS1 enzyme (recombinant hGYS1/GN1 protein) (Homo sapiens (Human), UniProt P13807); assay: GYS1 coupled enzyme assay (PK/LDH); assay type: biochemical; conditions: hGYS1/GN1 50 nM, UDP-Glucose 0.8 mM, G6P 1 mM; geometric mean of at least 2 runs
# [2] = molecular target: hGYS2 enzyme (recombinant hGYS2/GN1 protein) (Homo sapiens (Human), UniProt P54840); assay: GYS2 coupled enzyme assay (PK/LDH); assay type: biochemical; conditions: geometric mean of at least 2 assay runs on separate days, read-out: Avg_IC50
# Sequence of hGYS2 enzyme (recombinant hGYS2/GN1 protein) (P54840 whole entry): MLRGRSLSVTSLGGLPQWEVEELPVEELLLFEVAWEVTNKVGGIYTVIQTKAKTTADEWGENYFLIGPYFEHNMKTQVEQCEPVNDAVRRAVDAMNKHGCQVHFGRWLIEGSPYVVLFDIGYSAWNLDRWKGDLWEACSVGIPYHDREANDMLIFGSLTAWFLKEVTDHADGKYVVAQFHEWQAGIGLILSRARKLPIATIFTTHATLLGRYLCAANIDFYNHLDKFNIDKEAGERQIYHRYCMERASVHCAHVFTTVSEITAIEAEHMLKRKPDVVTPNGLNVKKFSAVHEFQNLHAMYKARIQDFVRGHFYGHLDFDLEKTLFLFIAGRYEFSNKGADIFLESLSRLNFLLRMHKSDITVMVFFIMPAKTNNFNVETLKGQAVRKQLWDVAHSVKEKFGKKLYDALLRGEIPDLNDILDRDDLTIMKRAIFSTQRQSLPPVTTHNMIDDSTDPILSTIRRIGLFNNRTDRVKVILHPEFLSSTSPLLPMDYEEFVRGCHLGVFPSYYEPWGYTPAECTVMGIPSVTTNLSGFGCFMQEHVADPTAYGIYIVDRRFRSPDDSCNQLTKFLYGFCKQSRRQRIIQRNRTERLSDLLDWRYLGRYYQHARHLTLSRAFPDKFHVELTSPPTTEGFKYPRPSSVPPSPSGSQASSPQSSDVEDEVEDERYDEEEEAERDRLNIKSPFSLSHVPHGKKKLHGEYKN
# Sequence of hGYS2 enzyme (recombinant hGYS2/GN1 protein) (P46976 whole entry partner): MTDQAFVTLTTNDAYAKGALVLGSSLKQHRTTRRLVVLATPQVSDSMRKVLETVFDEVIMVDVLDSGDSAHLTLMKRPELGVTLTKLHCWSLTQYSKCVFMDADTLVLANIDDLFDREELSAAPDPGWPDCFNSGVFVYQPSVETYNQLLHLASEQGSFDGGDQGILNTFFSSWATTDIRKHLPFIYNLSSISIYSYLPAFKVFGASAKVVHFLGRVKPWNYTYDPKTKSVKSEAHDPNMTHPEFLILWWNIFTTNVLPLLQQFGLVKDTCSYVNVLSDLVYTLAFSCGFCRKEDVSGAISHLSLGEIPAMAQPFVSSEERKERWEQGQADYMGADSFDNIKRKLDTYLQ
# From the text: The GYS2 coupled enzyme assay is a kinetic biochemical assay that indirectly quantifies the rate of glycogen synthesis by coupling the conversion of GYS2 substrate UDP-glucose into UDP with downstream enzymatic reactions. UDP is released from UDP-glucose as glucose monomers are linked into the growing glycogen strand by GYS2. The coupled assay then proceeds with pyruvate kinase utilizing UDP and phospho(enol)pyruvate (PEP) to form pyruvate. Lactate dehydrogenase then converts pyruvate and NADH into lactate and NAD+. Oxidation of NADH to NAD+ can be measured continuously with a plate reader by quantifying the decrease in NADH absorbance at 340 nm over time.
# Compounds that inhibit the hGYS2 enzyme and, subsequently, the downstream conversion of NADH to NAD+, were tested using assay ready plates (black, clear bottom 384 well plates) in a final DMSO reaction volume of 2.5% DMSO. The Assay Buffer contained 50 mM Tris pH 7.5, 2 mM MgCl2, and 100 mM KCl. Fresh stocks of BSA at a final concentration of 0.02% and TCEP 1 mM were added before splitting buffer into hGYS2 buffer and substrate buffer. To the hGYS2 buffer, rabbit liver glycogen was added at a final concentration of 0.2% glycogen. Glucose-6-Phosphate was added at 2 mM, recombinant hGYS2/GN1 protein was added at 200 nM to the substrate buffer, phosphoenolpyruvate (PEP) was added at 2 mM, UDP-Glucose was added at 2 mM, NADH was added at 0.6 mM, and Pyruvate Kinase/Lactate Dehydrogenase was added at 20 units/mL. The reaction was initiated by mixing hGYS2 buffer and substrate buffer at a 1:1 ratio. Both buffers were plated using a liquid dispensing device with hGYS2 buffer plated first followed by the substrate buffer. Plates were spun briefly to eliminate air bubbles and are immediately read in continuous mode at an absorbance of 340 nm, for 10 time points in one-minute increments, for a total of 10 minutes. The slope from these 10 time points was normalized to the positive and negative control wells. The duplicate % inhibition values are then averaged and fit to a Hill equation for dose response according to the Levenberg-Marquardt algorithm with the Hill equation maximum set to 100 and the minimum set to 0.
# The results are shown in Table 4 below, which reports the IC50 of each compound. Unless otherwise specified, IC50 values are reported as the geometric mean of at least 2 assay runs on separate days. As shown in the table below, the compounds of the present invention are not potent inhibitors of human GYS2. Unless otherwise specified, IC50 values are reported as the geometric mean of at least two assay runs on separate days. Each run represents the average of a technical replicate, where each compound was assayed twice in the same plate. A superscript “#” symbol in Table 4 indicates results from a single assay run.
# Sequence of hGYS1 enzyme (recombinant hGYS1/GN1 protein) (P13807 whole entry): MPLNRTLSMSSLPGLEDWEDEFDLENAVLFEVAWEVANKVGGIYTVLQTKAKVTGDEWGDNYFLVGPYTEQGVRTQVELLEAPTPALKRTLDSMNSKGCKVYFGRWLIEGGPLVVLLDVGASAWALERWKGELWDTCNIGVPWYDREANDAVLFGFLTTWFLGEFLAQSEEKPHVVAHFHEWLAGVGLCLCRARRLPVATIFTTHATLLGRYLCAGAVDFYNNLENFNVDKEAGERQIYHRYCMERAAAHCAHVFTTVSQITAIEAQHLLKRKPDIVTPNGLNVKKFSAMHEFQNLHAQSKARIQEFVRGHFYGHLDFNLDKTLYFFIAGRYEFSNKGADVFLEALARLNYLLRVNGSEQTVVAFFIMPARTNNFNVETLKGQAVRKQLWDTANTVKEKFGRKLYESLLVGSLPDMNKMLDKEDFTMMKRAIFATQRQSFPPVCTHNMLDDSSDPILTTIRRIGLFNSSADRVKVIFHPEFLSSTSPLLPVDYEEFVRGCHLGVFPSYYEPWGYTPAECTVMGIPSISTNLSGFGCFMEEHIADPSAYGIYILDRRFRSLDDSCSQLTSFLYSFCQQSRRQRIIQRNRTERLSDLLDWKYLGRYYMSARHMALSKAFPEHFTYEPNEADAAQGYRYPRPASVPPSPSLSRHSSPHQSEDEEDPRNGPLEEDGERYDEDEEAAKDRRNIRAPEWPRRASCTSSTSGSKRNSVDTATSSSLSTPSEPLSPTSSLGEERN
# Sequence of hGYS1 enzyme (recombinant hGYS1/GN1 protein) (P46976 whole entry partner): as the sequence (P46976 whole entry partner) above
IC50 [1],IC50 [2],Structure (SMILES)
38 nM,> 100 µM,"CC(C)c1ccc([C@@H](NC(=O)[C@@H]2C[C@@H](F)CN2C(=O)Cc2ccnn2C)c2ccccc2)cc1 (stereo in doubt) [Compound 220, (2S,4RS)-4-fluoro-1-[2-(1-methyl-1H-pyrazol-5-yl)acetyl]-N-[(S)-phenyl[4-(propan-2-yl)phenyl]methyl]pyrrolidine-2-carboxamide]"
43 nM,> 100 µM,"CC(C)c1ccc([C@@H](NC(=O)[C@@H]2C[C@@H](F)CN2C(=O)Cn2cccn2)c2ccccc2)cc1 (stereo in doubt) [Compound 221, (2S,4RS)-4-fluoro-N-[(S)-phenyl[4-(propan-2-yl)phenyl]methyl]-1-[2-(1H-pyrazol-1-yl)acetyl]pyrrolidine-2-carboxamide]"
40 nM,> 100 µM,"CC(C)c1ccc([C@@H](NC(=O)[C@@H]2C[C@@H](F)CN2C(=O)Cn2ccnn2)c2ccccc2)cc1 (stereo in doubt) [Compound 222, (2RS,4R)-4-fluoro-N-[(S)-phenyl[4-(propan-2-yl)phenyl]methyl]-1-[2-(1H-1,2,3-triazol-1-yl)acetyl]pyrrolidine-2-carboxamide]"
62 nM,> 100 µM,"CC(C)c1ccc([C@@H](NC(=O)[C@@H]2C[C@@H](F)CN2C(=O)Cc2nn[nH]n2)c2ccccc2)cc1 (stereo in doubt) [Compound 223, (2RS,4R)-4-fluoro-N-[(S)-phenyl[4-(propan-2-yl)phenyl]methyl]-1-[2-(2H-1,2,3,4-tetrazol-5-yl)acetyl]pyrrolidine-2-carboxamide]"
70 nM,> 100 µM,"CC(C)c1ccc([C@@H](NC(=O)[C@@H]2C[C@@H](F)CN2C(=O)Cc2nnco2)c2ccccc2)cc1 (stereo in doubt) [Compound 224, (2RS,4R)-4-fluoro-1-[2-(1,3,4-oxadiazol-2-yl)acetyl]-N-[(S)-phenyl[4-(propan-2-yl)phenyl]methyl]pyrrolidine-2-carboxamide]"
77 nM,> 100 µM,"CC(C)c1ccc([C@@H](NC(=O)[C@@H]2C[C@@H](F)CN2C(=O)Cc2cnnn2C)c2ccccc2)cc1 (stereo in doubt) [Compound 228, (2RS,4R)-4-fluoro-1-[2-(1-methyl-1H-1,2,3-triazol-5-yl)acetyl]-N-[(S)-phenyl[4-(propan-2-yl)phenyl]methyl]pyrrolidine-2-carboxamide]"
25 nM,> 100 µM,"CC(C)c1ccc([C@@H](NC(=O)[C@@H]2C[C@@H](F)CN2C(=O)Cc2cn(C)nn2)c2ccccc2)cc1 (stereo in doubt) [Compound 229, (2RS,4R)-4-fluoro-1-[2-(1-methyl-1H-1,2,3-triazol-4-yl)acetyl]-N-[(S)-phenyl[4-(propan-2-yl)phenyl]methyl]pyrrolidine-2-carboxamide]"
168 nM,> 100 µM,"CC(=O)N1C[C@H]2COC[C@@]2(C(=O)N2C[C@H](F)C[C@H]2C(=O)N[C@@H](c2ccccc2)c2ccc(C(C)C)cc2)C1 [Compound 3, (2S,4R)-1-[(3aS,6aS)-5-acetyl-hexahydro-1H-furo[3,4-c]pyrrole-3a-carbonyl]-4-fluoro-N-[(S)-phenyl[4-(propan-2-yl)phenyl]methyl]pyrrolidine-2-carboxamide]"
113 nM,> 100 µM,"CC(=O)N1CC2(CCCC2CC(=O)N2C[C@H](F)C[C@H]2C(=O)N[C@@H](c2ccccc2)c2ccc(C(C)C)cc2)C1 (stereo partly drawn) [Compound 7, (2S,4R)-1-(2-{2-acetyl-2-azaspiro[3.4]octan-5-yl}acetyl)-4-fluoro-N-[(S)-phenyl[4-(propan-2-yl)phenyl]methyl]pyrrolidine-2-carboxamide]"
42 nM,> 100 µM,"CC(C)c1ccc([C@@H](NC(=O)[C@@H]2C[C@@H](F)CN2C(=O)[C@@H]2CNC(=O)O2)c2ccccc2)cc1 [Compound 8, (2S,4R)-4-fluoro-1-[(5S)-2-oxo-1,3-oxazolidine-5-carbonyl]-N-[(S)-phenyl[4-(propan-2-yl)phenyl]methyl]pyrrolidine-2-carboxamide]"
59 nM,> 100 µM,"CC(C)c1ccc([C@@H](NC(=O)[C@@H]2C[C@@H](F)CN2C(=O)Cn2cnnn2)c2ccccc2)cc1 [Compound 9, (2S,4R)-4-fluoro-N-[(S)-phenyl[4-(propan-2-yl)phenyl]methyl]-1-[2-(1H-1,2,3-tetrazol-1-yl)acetyl]pyrrolidine-2-carboxamide]"
50 nM,> 100 µM,"Cc1nnc(CC(=O)N2C[C@H](F)C[C@H]2C(=O)N[C@@H](c2ccccc2)c2ccc(C(C)C)cc2)o1 [Compound 10, (2S,4R)-4-fluoro-1-[2-(5-methyl-1,3,4-oxadiazol-2-yl)acetyl]-N-[(S)-phenyl[4-(propan-2-yl)phenyl]methyl]pyrrolidine-2-carboxamide]"
91 nM,> 100 µM,"CC(C)c1ccc([C@@H](NC(=O)[C@@H]2C[C@@H](F)CN2C(=O)CCn2ccnn2)c2ccccc2)cc1 [Compound 11, (2S,4R)-4-fluoro-N-[(S)-phenyl[4-(propan-2-yl)phenyl]methyl]-1-[3-(1H-1,2,3-triazol-1-yl)propanoyl]pyrrolidine-2-carboxamide]"
147 nM,> 100 µM,"CC(C)c1ccc([C@@H](NC(=O)[C@@H]2C[C@@H](F)CN2C(=O)CCC#N)c2ccccc2)cc1 [Compound 13, (2S,4R)-1-(3-cyanopropanoyl)-4-fluoro-N-[(S)-phenyl[4-(propan-2-yl)phenyl]methyl]pyrrolidine-2-carboxamide]"
129 nM,> 100 µM,"CC(C)c1ccc([C@@H](NC(=O)[C@@H]2C[C@@H](F)CN2C(=O)CS(C)(=O)=O)c2ccccc2)cc1 [Compound 14, (2S,4R)-4-fluoro-1-(2-methanesulfonylacetyl)-N-[(S)-phenyl[4-(propan-2-yl)phenyl]methyl]pyrrolidine-2-carboxamide]"
48 nM,> 100 µM,"CC(C)c1ccc([C@@H](NC(=O)[C@@H]2C[C@@H](F)CN2C(=O)Cc2cscn2)c2ccccc2)cc1 [Compound 15, (2S,4R)-4-fluoro-N-[(S)-phenyl[4-(propan-2-yl)phenyl]methyl]-1-[2-(1,3-thiazol-4-yl)acetyl]pyrrolidine-2-carboxamide]"
33 nM,> 100 µM,"CC(C)c1ccc([C@@H](NC(=O)[C@@H]2C[C@@H](F)CN2C(=O)Cn2cncn2)c2ccccc2)cc1 [Compound 16, (2S,4R)-4-fluoro-N-[(S)-phenyl[4-(propan-2-yl)phenyl]methyl]-1-[2-(1H-1,2,4-triazol-1-yl)acetyl]pyrrolidine-2-carboxamide]"
45 nM,> 100 µM,"CC(C)c1ccc([C@@H](NC(=O)[C@@H]2C[C@@H](F)CN2C(=O)Cc2c[nH]cn2)c2ccccc2)cc1 [Compound 18, (2S,4R)-4-fluoro-1-[2-(1H-imidazol-4-yl)acetyl]-N-[(S)-phenyl[4-(propan-2-yl)phenyl]methyl]pyrrolidine-2-carboxamide]"
70 nM,> 100 µM,"CC(C)c1ccc([C@@H](NC(=O)[C@@H]2C[C@@H](F)CN2C(=O)Cn2ccnc2)c2ccccc2)cc1 [Compound 23, (2S,4R)-4-fluoro-1-[2-(1H-imidazol-1-yl)acetyl]-N-[(S)-phenyl[4-(propan-2-yl)phenyl]methyl]pyrrolidine-2-carboxamide]"
50 nM,> 100 µM,"CC(C)c1ccc([C@@H](NC(=O)[C@@H]2C[C@@H](F)CN2C(=O)C(C)n2cnnn2)c2ccccc2)cc1 (stereo partly drawn) [Compound 24, (2S,4R)-4-fluoro-N-[(S)-phenyl[4-(propan-2-yl)phenyl]methyl]-1-[2-(1H-1,2,3,4-tetrazol-1-yl)propanoyl]pyrrolidine-2-carboxamide]"
235 nM,> 100 µM,"CC(C)c1ccc([C@@H](NC(=O)[C@@H]2C[C@@H](F)CN2C(=O)C2(C)COC2)c2ccccc2)cc1 [Compound 25, (2S,4R)-4-fluoro-1-(3-methyloxetane-3-carbonyl)-N-[(S)-phenyl[4-(propan-2-yl)phenyl]methyl]pyrrolidine-2-carboxamide]"
36 nM,> 100 µM,"CC(C)c1ccc([C@@H](NC(=O)[C@@H]2C[C@@H](F)CN2C(=O)Cc2cnccn2)c2ccccc2)cc1 [Compound 26, (2S,4R)-4-fluoro-N-[(S)-phenyl[4-(propan-2-yl)phenyl]methyl]-1-[2-(pyrazin-2-yl)acetyl]pyrrolidine-2-carboxamide]"
